Consider 16 compounds from patent US20250388575A1, “HETEROBIFUNCTIONAL COMPOUNDS AND METHODS OF TREATING DISEASE” (Halda Therapeutics OpCo, Inc., priority 2022, published 2025).

Structures are written as SMILES. Read-outs that look alike come from different tables or passages of the source. Bounds are passed on as bounds.

Test [1] concerns the target BRD4-BD1 (Homo sapiens (Human), UniProt O60885). Briefly: bromoKdELECT assay for binding affinity to BRD4-BD1. The settings on record: 11-point 3-fold dilution. As to the method:
(§1) Compounds were tested using a bromoKdELECT assay. T7 phage strains displaying bromodomains were grown in parallel in 24-well blocks in an E. coli host derived from the BL21 strain. E. coli were grown to log-phase and infected with T7 phage from a frozen stock (multiplicity of infection=0.4) and incubated with shaking at 32° C. until lysis (90-150 minutes). The lysates were centrifuged (5,000×g) and filtered (0.2 μm) to remove cell debris. Streptavidin-coated magnetic beads were treated with biotinylated small molecule or acetylated peptide ligands for 30 minutes at room temperature to generate affinity resins for bromodomain assays. The liganded beads were blocked with excess biotin and washed with blocking buffer (SeaBlock (Pierce), 1% BSA, 0.05% Tween 20, 1 mM DTT) to remove unbound ligand and to reduce nonspecific phage binding. Binding reactions were assembled by combining bromodomains, liganded affinity beads, and test compounds in 1× binding buffer (17% SeaBlock, 0.33×PBS, 0.04% Tween 20, 0.02% BSA, 0.004% Sodium azide, 7.4 mM DTT). Test compounds were prepared as 1000× stocks in 100% DMSO. Kds were determined using an 11-point 3-fold compound dilution series with one DMSO control point. All compounds for Kd measurements are distributed by acoustic transfer (non-contact dispensing) in 100% DMSO. The compounds were then diluted directly into the assays such that the final concentration of DMSO was 0.09%. All reactions performed in polypropylene 384-well plates. Each was a final volume of 0.02 ml. The assay plates were incubated at room temperature with shaking for 1 hour and the affinity beads were washed with wash buffer (1×PBS, 0.05% Tween 20). The beads were then resuspended in elution buffer (1×PBS, 0.05% Tween 20, 2 μM non-biotinylated affinity ligand) and incubated at room temperature with shaking for 30 minutes. The bromodomain concentration in the eluates was measured by qPCR.

Test [2] deals with T-Rex 293 cell line SC3 cells lacking increased expression of androgen receptor protein. Briefly: Cellular growth inhibition, T-Rex 293 SC3 cells lacking increased androgen receptor expression (no doxycycline), CellTiter-Glo. The class given is cell-based. Particulars: T-Rex 293 SC3 cells lacking increased androgen receptor expression (not exposed to doxycycline), 72 hours, CellTiter-Glo; read-out: GI50. The essentials:
(§2)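 SC3, a T-Rex 293 clone with doxycycline-inducible wild-type androgen receptor, was seeded in phenol red-free DMEM with 10% charcoal-dextran FBS, with or without 10 ng/mL doxycycline. Compound added at 24 h (0.5% DMSO) for 72 h at 37° C. CellTiter-Glo 2.0 luminescence; GI50 from four-parameter fit.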
On the technique in general: Cellular ATP, detected with luciferase, serves as a proxy for viable cell number.

Test [3] concerns T-Rex 293 cell line SC3 cells having increased expression of androgen receptor protein. Briefly: Cellular growth inhibition, T-Rex 293 SC3 cells with increased androgen receptor expression (doxycycline), CellTiter-Glo. The format is cell-based. The settings on record: T-Rex 293 SC3 cells with increased androgen receptor expression (exposed to 10 ng/mL doxycycline), 72 hours, CellTiter-Glo; read-out: GI50. The essentials:
as §2

Test [4] has as its target BRD4-BD2 (Homo sapiens (Human), UniProt O60885). Briefly: bromoKdELECT assay for binding affinity to BRD4-BD2. Particulars: 11-point 3-fold dilution. How it is done:
as §1

For test [5], the system named is VCaP cells. The test is described as follows: Cellular growth inhibition assay for VCaP cells, CellTiter-Glo. The format is cell-based, human. The settings on record: VCaP cells, 72 hours, CellTiter-Glo, read-out: GI50. Summed up: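 GI50 values come from four-parameter curve fits of luminescence data normalized to a zero baseline. Compound, in medium with 0.5% DMSO, was added one day after plating and left for 72 h before CellTiter-Glo 2.0 addition.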

The test system of test [6] is T47D cells. The test is described as follows: Cellular growth inhibition assay for T47D cells, CellTiter-Glo. Particulars: 72 hours treatment, CellTiter-Glo 2.0. The class given is cell-based, human. Summed up:
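Growth inhibition as GI50, fitted with four parameters to CellTiter-Glo luminescence after 72 h of compound exposure (0.5% DMSO). Cells were T47D, grown in insulin-supplemented (0.2 units/mL) DMEM with 10% FBS and treated one day post-seeding.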

For `CCS(=O)(=O)Nc1ccc(Oc2ccc(CCOC3CCN(c4ccc(C(=O)N[C@H]5CC[C@H](Oc6ccc(C#N)c(Cl)c6)CC5)nn4)CC3)cc2)c(-c2cn(C)c(=O)c3[nH]ccc23)c1` [I-35], the Kd in test [1] and in test [4] was less than 50 nM in each case. The GI50 in test [2], in test [3] and in test [5] (Homo sapiens) was less than 500 nM each time.

Take `CCS(=O)(=O)Cc1ccc(Oc2cccc(CCCOC3CCN(c4ccc(C(=O)N[C@H]5CC[C@H](Oc6ccc(C#N)c(Cl)c6)CC5)nn4)CC3)c2F)c(-c2cn(C)c(=O)c3[nH]ccc23)c1` [I-29]: the Kd in test [1] and in test [4] was 50 to 500 nM each time. Also, the GI50 in test [2], in test [3] and in test [5] (Homo sapiens) was less than 500 nM in each case.

Turning to `CCS(=O)(=O)c1ccc(Oc2cccc(OCCCC3CCN(c4ccc(C(=O)N[C@H]5CC[C@H](Oc6ccc(C#N)c(Cl)c6)CC5)nn4)CC3)c2F)c(-c2cn(C)c(=O)c3[nH]ccc23)c1` [I-15], the Kd in test [1] and in test [4] was 500 to 2500 nM in each case. The GI50 in test [2], in test [3] and in test [5] (Homo sapiens) was less than 500 nM in each case.

`Cn1cc(-c2cc(C(C)(C)O)ccc2Oc2cc(F)c(CCOC3CCN(c4ccc(C(=O)N[C@H]5CC[C@H](Oc6ccc(C#N)c(Cl)c6)CC5)nn4)CC3)c(F)c2)c2cc[nH]c2c1=O` [I-110]: the Kd in test [1] and in test [4] was greater than 2500 nM throughout. The GI50 is 500 to 1500 nM in test [2], 1500 to 3000 nM in test [6] (Homo sapiens), less than 500 nM in test [3] and less than 500 nM in test [5] (Homo sapiens).

As for `CCS(=O)(=O)c1ccc(Oc2ccc(CCC3CCN(c4ccc(C(=O)N[C@H]5CC[C@H](Oc6ccc(C#N)c(Cl)c6)CC5)nn4)CC3)c(F)c2)c(-c2cn(C)c(=O)c3[nH]ccc23)c1` [I-54], the Kd in test [1] and in test [4] was greater than 2500 nM each time. For the same compound, the GI50 in test [2], in test [6], in test [3] and in test [5] was less than 500 nM each time.

As to `CN(c1ccc(Oc2ccc(C(C)(C)O)cc2-c2cn(C)c(=O)c3[nH]ccc23)cc1)C1CCN(c2ccc(C(=O)N[C@H]3CC[C@H](Oc4ccc(C#N)c(Cl)c4)CC3)nn2)CC1` [I-137, N-[4-(3-chloro-4-cyano-phenoxy)cyclohexyl]-6-[4-[4-[4-(1-hydroxy-1-methyl-ethyl)-2-(6-methyl-7-oxo-1H-pyrrolo[2,3-c]pyridin-4-yl)phenoxy]-N-methyl-anilino]-1-piperidyl]pyridazine-3-carboxamide], the Kd in test [1] and in test [4] was 50 to 500 nM each time. In addition, the GI50 in test [2] was greater than 3000 nM; in test [6] (Homo sapiens) it was less than 500 nM; in test [3], less than 500 nM; in test [5] (Homo sapiens) it was less than 500 nM.

As to `CCS(=O)(=O)c1ccc(Oc2ccc(CCC3CCN(c4ccc(C(=O)N[C@H]5CC[C@H](Oc6ccc(C#N)c(Cl)c6)CC5)nn4)CC3)cc2)c(-c2cn(C)c(=O)c3[nH]ccc23)c1` [I-50], the Kd in test [1] and in test [4] was 50 to 500 nM in each case. The GI50 in test [2], in test [6], in test [3] and in test [5] was less than 500 nM throughout.

`CCS(=O)(=O)c1ccc(Oc2cccc(OCCC3CCN(c4ccc(C(=O)N[C@H]5CC[C@H](Oc6ccc(C#N)c(Cl)c6)CC5)nn4)CC3)c2F)c(-c2cn(C)c(=O)c3[nH]ccc23)c1` [I-42]: the Kd in test [1] and in test [4] was 500 to 2500 nM in each case. Moreover, the GI50 in test [2], in test [6], in test [3] and in test [5] was less than 500 nM each time.

In the case of `CCS(=O)(=O)c1ccc(Oc2ccc(CN3CC4(CCN(c5ccc(C(=O)N[C@H]6CC[C@H](Oc7ccc(C#N)c(Cl)c7)CC6)nn5)CC4)C3)cc2)c(-c2cn(C)c(=O)c3[nH]ccc23)c1` [I-57], the Kd in test [1] and in test [4] was less than 50 nM each time. For the same compound, the GI50 in test [2], in test [6] (Homo sapiens), in test [3] and in test [5] (Homo sapiens) was less than 500 nM each time.

Consider `CCS(=O)(=O)Cc1ccc(Oc2ccc(CCC3CCN(c4ccc(C(=O)NC5CCC(Oc6ccc(C#N)c(Cl)c6)CC5)nn4)CC3)cc2)c(-c2cn(C)c(=O)c3[nH]ccc23)c1` (centres unmarked) [I-154, N-[4-(3-chloro-4-cyano-phenoxy)cyclohexyl]-6-[4-[2-[4-[4-(ethylsulfonylmethyl)-2-(6-methyl-7-oxo-1H-pyrrolo[2,3-c]pyridin-4-yl)phenoxy]phenyl]ethyl]-1-piperidyl]pyridazine-3-carboxamide], for which the Kd in test [1] and in test [4] was 500 to 2500 nM throughout. Moreover, the GI50 in test [2], in test [3] and in test [5] was less than 500 nM in each case.

Take `CCS(=O)(=O)Nc1ccc(Oc2cccc(OCCOCCOCCOCCOCCOC3CCN(c4ccc(C(=O)N[C@H]5CC[C@H](Oc6ccc(C#N)c(Cl)c6)CC5)nn4)CC3)c2)c(-c2cn(C)c(=O)c3[nH]ccc23)c1` [I-3, N-[4-(3-chloro-4-cyano-phenoxy)cyclohexyl]-6-[4-[2-[2-[2-[2-[2-[3-[4-(ethylsulfonylamino)-2-(6-methyl-7-oxo-1H-pyrrolo[2,3-c]pyridin-4-yl)phenoxy]phenoxy]ethoxy]ethoxy]ethoxy]ethoxy]ethoxy]-1-piperidyl]pyridazine-3-carboxamide]: the Kd in test [1] and in test [4] was less than 50 nM in each case. Further, the values for the GI50 in test [2], in test [3] and in test [5] (Homo sapiens) were greater than 3000 nM, less than 500 nM and less than 500 nM, respectively.

For `Cn1cc(-c2cc(NC(=O)CCC3CCN(c4ccc(C(=O)N[C@H]5CC[C@H](Oc6ccc(C#N)c(Cl)c6)CC5)nn4)CC3)ccc2Oc2ccc(F)cc2F)c2cc[nH]c2c1=O` [I-213], the Kd in test [1] and in test [4] was 500 to 2500 nM each time. Besides, the GI50 was 500 to 1500 nM in test [2], less than 500 nM in test [3] and 1500 to 3000 nM in test [5].

In the case of `Cn1cc(-c2cc(C(C)(C)O)ccc2Oc2ccc(CCC3CCN(c4ccc(C(=O)N[C@H]5CC[C@H](Oc6ccc(C#N)c(Cl)c6)CC5)nn4)CC3)cc2F)c2cc[nH]c2c1=O` [I-111], the Kd in test [1] and in test [4] was greater than 2500 nM in each case. Further, the GI50 is greater than 3000 nM in test [2], less than 500 nM in test [6], less than 500 nM in test [3] and less than 500 nM in test [5].

For `CCS(=O)(=O)c1ccc(Oc2ccc(CCC3CCN(c4ccc(C(=O)N[C@H]5CC[C@H](Oc6ccc(C#N)c(Cl)c6)CC5)nn4)CC3)nc2)c(-c2cn(C)c(=O)c3[nH]ccc23)c1` [I-219], the Kd in test [1] and in test [4] was 50 to 500 nM each time. Besides, the GI50 in test [2], in test [6], in test [3] and in test [5] was less than 500 nM throughout.

In the case of `CCS(=O)(=O)c1ccc(Oc2ccc(COC3CCN(c4ccc(C(=O)N[C@H]5CC[C@H](Oc6ccc(C#N)c(Cl)c6)CC5)nn4)CC3)c(F)c2F)c(-c2cn(C)c(=O)c3[nH]ccc23)c1` [I-53], the Kd in test [1] and in test [4] was greater than 2500 nM in each case. The GI50 in test [2], in test [6], in test [3] and in test [5] was less than 500 nM each time.

As for `CCS(=O)(=O)Cc1ccc(Oc2cccc(OCCCC3CCN(c4ccc(C(=O)N[C@H]5CC[C@H](Oc6ccc(C#N)c(Cl)c6)CC5)nn4)CC3)c2F)c(-c2cn(C)c(=O)c3[nH]ccc23)c1` [I-20], the Kd in test [1] and in test [4] was 500 to 2500 nM in each case. The GI50 in test [2], in test [3] and in test [5] (Homo sapiens) was less than 500 nM in each case.

The Kd is the constant that tells how readily two partners part at equilibrium. Higher therefore signals weaker binding. What is called GI50 is the concentration that inhibits growth by half.
